Reference: the supplement of paper PMC10307832

Experiments:
Assay in all cases: relative viability (nuclei count vs DMSO), 5 days (fraction); higher = more cells survive
[1] = test system: 201T
Method in brief: (§1)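 Lung cancer cell lines in 1536-well plates got either a single drug or a fixed anchor-drug dose together with five library-drug doses (not always all listed) in √10 steps, by pin tool, on the day after seeding. Nuclei were counted after 5 days, and relative viability is the treated-to-vehicle ratio of nuclei counts. Values are medians of duplicate plates.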

[2] = test system: COR-L23
Method in brief: as §1

[3] = test system: H3255
Method in brief: as §1

[4] = test system: HARA
Method in brief: as §1

[5] = test system: HCC-366
Method in brief: as §1

[6] = test system: HCC-78
Method in brief: as §1

[7] = test system: LU99A
Method in brief: as §1

[8] = test system: NCI-H1650
Method in brief: as §1

[9] = test system: NCI-H1651
Method in brief: as §1

[10] = test system: NCI-H1755
Method in brief: as §1

[11] = test system: NCI-H1793
Method in brief: as §1

[12] = test system: NCI-H2085
Method in brief: as §1

[13] = test system: NCI-H2087
Method in brief: as §1

[14] = test system: NCI-H23
Method in brief: as §1

[15] = test system: NCI-H3122
Method in brief: as §1

[16] = test system: NCI-H322M
Method in brief: as §1

[17] = test system: NCI-H358
Method in brief: as §1

[18] = test system: NCI-H460
Method in brief: as §1

[19] = test system: NCI-H596
Method in brief: as §1

[20] = test system: NCI-H650
Method in brief: as §1

[21] = test system: PC-3 [JPC-3]
Method in brief: as §1

[22] = test system: SK-LU-1
Method in brief: as §1

SMILES: Cc1cn(-c2cc(NC(=O)c3ccc(C)c(Nc4nccc(-c5cccnc5)n4)c3)cc(C(F)(F)F)c2)cn1 [Nilotinib] + COc1cc2c(Oc3ccc(NC(=O)C4(C(=O)Nc5ccc(F)cc5)CC4)cc3F)ccnc2cc1OCCCN1CCOCC1 [Foretinib] (partner 0.25 µM)
- relative viability ([1]; first compound 0.001 µM): 0.9
- relative viability ([1]; first compound 0.003162 µM): 1.09
- relative viability ([1]; first compound 0.01 µM): 1.32
- relative viability ([1]; first compound 0.03162 µM): 1.01
- relative viability ([1]; first compound 0.1 µM): 1.14
- relative viability ([2]; first compound 0.001 µM): 0.853
- relative viability ([2]; first compound 0.003162 µM): 1.28
- relative viability ([2]; first compound 0.01 µM): 1.13
- relative viability ([2]; first compound 0.03162 µM): 0.821
- relative viability ([2]; first compound 0.1 µM): 0.924
- relative viability ([3]; first compound 0.001 µM): 0.943
- relative viability ([3]; first compound 0.003162 µM): 1.06
- relative viability ([3]; first compound 0.03162 µM): 0.845
- relative viability ([3]; first compound 0.1 µM): 0.296
- relative viability ([4]; first compound 0.001 µM): 0.922
- relative viability ([4]; first compound 0.003162 µM): 0.646
- relative viability ([4]; first compound 0.01 µM): 0.817
- relative viability ([4]; first compound 0.03162 µM): 0.811
- relative viability ([4]; first compound 0.1 µM): 0.943
- relative viability ([5]; first compound 0.001 µM): 0.959
- relative viability ([5]; first compound 0.003162 µM): 1.08
- relative viability ([5]; first compound 0.01 µM): 1.17
- relative viability ([5]; first compound 0.03162 µM): 0.916
- relative viability ([5]; first compound 0.1 µM): 0.953
- relative viability ([6]; first compound 0.001 µM): 0.636
- relative viability ([6]; first compound 0.003162 µM): 0.65
- relative viability ([6]; first compound 0.01 µM): 0.719
- relative viability ([6]; first compound 0.03162 µM): 0.577
- relative viability ([6]; first compound 0.1 µM): 0.59
- relative viability ([7]; first compound 0.001 µM): 0.784
- relative viability ([7]; first compound 0.003162 µM): 0.848
- relative viability ([7]; first compound 0.01 µM): 0.889
- relative viability ([7]; first compound 0.03162 µM): 0.823
- relative viability ([7]; first compound 0.1 µM): 0.509
- relative viability ([8]; first compound 0.001 µM): 1.09
- relative viability ([8]; first compound 0.003162 µM): 1.2
- relative viability ([8]; first compound 0.01 µM): 1.3
- relative viability ([8]; first compound 0.03162 µM): 1.09
- relative viability ([8]; first compound 0.1 µM): 1.3
- relative viability ([9]; first compound 0.001 µM): 0.82
- relative viability ([9]; first compound 0.003162 µM): 0.922
- relative viability ([9]; first compound 0.01 µM): 1.19
- relative viability ([9]; first compound 0.03162 µM): 0.761
- relative viability ([9]; first compound 0.1 µM): 0.79
- relative viability ([10]; first compound 0.001 µM): 0.892
- relative viability ([10]; first compound 0.003162 µM): 0.968
- relative viability ([10]; first compound 0.01 µM): 0.974
- relative viability ([10]; first compound 0.03162 µM): 0.983
- relative viability ([10]; first compound 0.1 µM): 0.843
- relative viability ([11]; first compound 0.001 µM): 0.768
- relative viability ([11]; first compound 0.003162 µM): 1.02
- relative viability ([11]; first compound 0.01 µM): 0.79
- relative viability ([11]; first compound 0.03162 µM): 0.542
- relative viability ([11]; first compound 0.1 µM): 0.582
- relative viability ([12]; first compound 0.001 µM): 0.919
- relative viability ([12]; first compound 0.003162 µM): 1.09
- relative viability ([12]; first compound 0.01 µM): 1.17
- relative viability ([12]; first compound 0.03162 µM): 0.84
- relative viability ([12]; first compound 0.1 µM): 0.801
- relative viability ([13]; first compound 0.001 µM): 1.03
- relative viability ([13]; first compound 0.003162 µM): 1.16
- relative viability ([13]; first compound 0.01 µM): 1.27
- relative viability ([13]; first compound 0.03162 µM): 0.83
- relative viability ([13]; first compound 0.1 µM): 0.761
- relative viability ([14]; first compound 0.001 µM): 1.06
- relative viability ([14]; first compound 0.003162 µM): 1.13
- relative viability ([14]; first compound 0.01 µM): 1.02
- relative viability ([14]; first compound 0.03162 µM): 0.79
- relative viability ([14]; first compound 0.1 µM): 0.658
- relative viability ([15]; first compound 0.001 µM): 1.02
- relative viability ([15]; first compound 0.003162 µM): 1.09
- relative viability ([15]; first compound 0.01 µM): 1.08
- relative viability ([15]; first compound 0.03162 µM): 0.929
- relative viability ([15]; first compound 0.1 µM): 0.68
- relative viability ([16]; first compound 0.001 µM): 1.01
- relative viability ([16]; first compound 0.003162 µM): 0.987
- relative viability ([16]; first compound 0.01 µM): 1.05
- relative viability ([16]; first compound 0.03162 µM): 0.956
- relative viability ([16]; first compound 0.1 µM): 1.07
- relative viability ([17]; first compound 0.001 µM): 0.655
- relative viability ([17]; first compound 0.003162 µM): 0.8
- relative viability ([17]; first compound 0.01 µM): 0.818
- relative viability ([17]; first compound 0.03162 µM): 0.446
- relative viability ([17]; first compound 0.1 µM): 0.346
- relative viability ([18]; first compound 0.001 µM): 0.903
- relative viability ([18]; first compound 0.003162 µM): 1.31
- relative viability ([18]; first compound 0.01 µM): 1.17
- relative viability ([18]; first compound 0.03162 µM): 0.66
- relative viability ([18]; first compound 0.1 µM): 0.941
- relative viability ([19]; first compound 0.001 µM): 0.732
- relative viability ([19]; first compound 0.003162 µM): 0.622
- relative viability ([19]; first compound 0.01 µM): 0.729
- relative viability ([19]; first compound 0.03162 µM): 0.937
- relative viability ([19]; first compound 0.1 µM): 0.601
- relative viability ([20]; first compound 0.001 µM): 0.982
- relative viability ([20]; first compound 0.003162 µM): 0.999
- relative viability ([20]; first compound 0.03162 µM): 0.986
- relative viability ([20]; first compound 0.1 µM): 1
- relative viability ([21]; first compound 0.001 µM): 1.03
- relative viability ([21]; first compound 0.003162 µM): 1.16
- relative viability ([21]; first compound 0.01 µM): 1.25
- relative viability ([21]; first compound 0.03162 µM): 0.967
- relative viability ([21]; first compound 0.1 µM): 0.863
- relative viability ([22]; first compound 0.001 µM): 0.745
- relative viability ([22]; first compound 0.003162 µM): 0.925
- relative viability ([22]; first compound 0.01 µM): 0.956
- relative viability ([22]; first compound 0.03162 µM): 0.691
- relative viability ([22]; first compound 0.1 µM): 0.666
